Data reported in patent US9730979B2, “Methods for decreasing set in inhibiting protein phosphatase 2A (PP2A) and/or increasing the activity of cyclin-dependent kinase 5 (CDK5) by an APOE peptide” (COGNOSCI, INC., priority 2006, dated 2017).

Tests used:
tau = experiment: Okadaic acid induced phospho-tau (AT-8) in mouse cortex; format: in vivo, C57B1/6 mice
Method: C57B1/6 mice were injected intravenously with increasing concentrations of okadaic acid (OA) (calculated by administration of a sufficient quantity of OA to produce the indicated μM concentration in a blood volume of 2 mL). One hour after OA was administered, mice were euthanized by decapitation and the brain removed. The cortex was isolated, flash frozen with liquid nitrogen, ground to a fine powder and an extract made by homogenization of the powder in an extraction buffer containing protease and phosphatase inhibitors. Protein extracts were separated by SDS-PAGE, transferred to nitrocellulose membranes, and probed for phospho-tau using the AT-8 antibody that recognizes phosphorylation of Ser202 and Thr205 of tau. Phospho-tau signals were normalized to signals from GAPDH protein. […] To determine the effect of COG peptides on the phosphorylation status of the tau protein, 5 mg/kg of COG 1410 was administered to the mice by subcutaneous injection 15 minutes prior to OA administration. FIG. 11B depicts the results of this series of experiments.

PP2A = PP2A activity (rate of phosphate release) of PP2A immunoprecipitated from treated RAW cells; format: cell-based, mouse; settings: 10 nM okadaic acid alone, 1 hour
Method: Mouse macrophagic RAW cells were incubated with either 100 ng/mL LPS, 1 μM COG 112 (COG 133 conjugated to antennapedia), LPS and COG 112, 10 nM okadaic acid (an inhibitor of PP2A), or okadaic acid and COG 112. After 1 hour, cells were lysed and PP2A was immunoprecipitated by adding an antibody targeted to the catalytic C-subunit of PP2A. Half of the immunoprecipitate was separated by SDS-PAGE, blotted on to nitrocellulose, and probed with an anti-PP2AC antibody. The remaining portion was assayed for activity by adding 125 μL assay cocktail containing a phospho-threonine substrate peptide to the immunoprecipitated enzyme. After incubating at 37° C. with shaking, a 25 μL aliquot was removed and added to an ammonium molybdate solution (Upstate) that chelates free phosphate and changes color upon chelate formation. Aliquots were removed at various time intervals and the amount of free phosphate released from the peptide was determined by comparison to a phosphate standard curve. The rate of phosphate release was determined by linear fit to the time course data and was normalized to the relative PP2A concentration. PP2A activity, measured by the rate of phosphate release, is increased in the presence of COG 112 (FIG. 8), as would be expected if SET inhibition of PP2A was eliminated by binding of COG112 to SET. […]

SET from human brain = target: T1, SET from human brain (Homo sapiens, UniProt Q01105); experiment: Biotinylated COG 133 pull-down of SET from human brain extract, competition with excess peptide; format: binding
SET, sequence (Q9EQU5 37-289 limits assumed): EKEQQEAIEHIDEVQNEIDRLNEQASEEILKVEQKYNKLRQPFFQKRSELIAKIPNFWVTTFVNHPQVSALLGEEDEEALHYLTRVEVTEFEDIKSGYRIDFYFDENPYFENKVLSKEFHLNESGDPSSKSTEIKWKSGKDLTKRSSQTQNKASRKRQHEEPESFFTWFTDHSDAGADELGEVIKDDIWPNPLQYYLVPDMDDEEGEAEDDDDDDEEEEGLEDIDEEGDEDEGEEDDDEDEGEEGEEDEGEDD
T1 construct: pulls down SET from human brain extracts; from tissue; host or cells: human brain homogenate
T1 sequence (Q01105 whole entry): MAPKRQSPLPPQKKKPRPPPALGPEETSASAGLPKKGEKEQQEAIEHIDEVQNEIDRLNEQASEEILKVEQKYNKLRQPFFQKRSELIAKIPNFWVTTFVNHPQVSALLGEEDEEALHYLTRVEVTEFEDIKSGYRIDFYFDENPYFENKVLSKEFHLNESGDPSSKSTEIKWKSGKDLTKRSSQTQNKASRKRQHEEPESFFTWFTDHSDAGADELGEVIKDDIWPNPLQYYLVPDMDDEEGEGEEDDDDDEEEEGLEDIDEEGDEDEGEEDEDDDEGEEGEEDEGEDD
Method: Human brain was homogenized in PBS buffer with a protease cocktail tablet and centrifuged to remove cellular debris. 100 ng of biotinylated COG 133 (COG 133 peptide with biotin attached to the N-terminus) was added to 1 mg of clarified supernatant. After 4 hours of incubation at room temperature, 50 μL of a 50% slurry of streptavidin agarose beads were added. After an additional hour of incubation, the beads were pelleted by centrifugation. The beads were washed 3 times with PBS buffer containing 0.1% tween 20 detergent. 50 μL of a 2×SDS PAGE loading buffer (containing DTT) were added to the washed beads and the samples were boiled for 2 minutes. Polyacrylamide gels were loaded with either 40 μL of extract per lane or 10 μg of total brain extract protein (control lane) and run in SDS buffer. […] Membranes were then probed with an anti-SET antibody. Blots were developed with Enhanced Chemiluminescence substrates (GE healthcare) and visualized by exposure to film.
In a related experiment, derivatives of the COG 133 peptide were tested for SET binding. Human brain extracts were prepared as described above. A 10-fold excess of COG 1410 or COG 112 peptide was added to the brain extract and incubated for 10 minutes. Next, 100 ng of biotinylated COG 133 was added to the extract and incubated for four hours at room temperature. […]

SET bound to P35 [1] = target: T2, SET bound to P35 (Mus musculus, UniProt Q9EQU5); experiment: Co-precipitation of SET with immunoprecipitated p35 from mouse brain lysate; format: binding; settings: 50 μM peptide, SET normalized to P35
T2 construct: from tissue; host or cells: mouse brain lysate
T2 sequence (Q9EQU5 2-289 limits assumed): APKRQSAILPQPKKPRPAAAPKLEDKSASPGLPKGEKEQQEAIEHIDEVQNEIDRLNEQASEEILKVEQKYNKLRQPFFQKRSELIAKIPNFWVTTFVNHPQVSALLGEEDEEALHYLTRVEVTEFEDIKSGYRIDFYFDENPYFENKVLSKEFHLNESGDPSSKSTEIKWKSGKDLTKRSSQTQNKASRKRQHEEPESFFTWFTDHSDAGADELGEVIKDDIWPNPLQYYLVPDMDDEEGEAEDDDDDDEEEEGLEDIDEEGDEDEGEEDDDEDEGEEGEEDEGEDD
Method: (§1) FIG. 12. Mouse brain lysate was incubated with 50 μM of each of the peptides indicated. P35 was subsequently immunoprecipitated from 1 mg of the peptide-treated lysate. Western blots were performed to measure co-precipitation of SET protein (left panel). […] Signals from SET were normalized to signals for P35 protein. Results with COG 133 are not shown and were inconclusive possibly due to unequal protein loading.
(§2) Cdk5 requires the activator protein p35 for kinase activity. Although cdk5 is ubiquitously expressed, p35 expression is restricted to neurons of the central nervous system, thus limiting cdk5 associated kinase activity to these neurons. Cleavage of p35 to p25 disregulates cdk5 kinase activity causing the kinase to become constitutively active. Constitutive kinase activity of cdk5/p25 has been implicated in the aberrant hyperphosphorylation of tau protein and subsequent neurodegeneration found in Alzheimer's disease and other tauopathies. […] Therefore, it may be possible to reduce cdk5 kinase activity by interfering with the interaction between SET and the cdk5/p35 complex. To test this possibility, the effects of COG peptides on the binding of SET to p35 were examined. Mouse brain lysates (FIG. 12) or human brain lysates (FIG. 13) were incubated with 50 μM of COG 056 (reverse sequence of COG133), COG 112, COG133, or COG 1410. […]

SET bound to P35 [2] = target: T3, SET bound to P35 (Homo sapiens, UniProt Q01105); experiment: Co-precipitation of SET with immunoprecipitated p35 from human brain lysate; format: binding; settings: 50 μM peptide, SET normalized to P35
T3 construct: from tissue; host or cells: human brain lysate
T3 sequence (Q01105 2-290 limits assumed): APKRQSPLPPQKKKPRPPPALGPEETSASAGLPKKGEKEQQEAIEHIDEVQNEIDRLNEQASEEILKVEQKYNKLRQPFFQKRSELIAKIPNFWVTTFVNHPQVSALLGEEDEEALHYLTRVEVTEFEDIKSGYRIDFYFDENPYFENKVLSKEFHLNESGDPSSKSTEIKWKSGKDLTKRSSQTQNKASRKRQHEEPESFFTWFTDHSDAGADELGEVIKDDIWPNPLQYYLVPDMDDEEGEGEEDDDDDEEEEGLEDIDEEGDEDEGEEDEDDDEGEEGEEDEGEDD
Method: as §1, with “13. Human” for “12. Mouse”, “protein.” for “protein. Results with COG 133 are not shown and were inconclusive possibly due to unequal protein loading.”
as §2, with “1410. Activator protein p35 was immunoprecipitated with an anti-p35 antibody and protein A agarose beads from 1 mg of the peptide-treated brain lysates.” for “1410.”

[3] = relative to COG 133; cited from earlier work
BV2 cells [4] = experiment: LPS-induced nitric oxide production in BV2 cells with and without siRNA to SET; format: cell-based, mouse; settings: BV2 cells transfected with siRNA to SET
Method: See PCT application PCT/US05/31431 which claims priority to U.S. Provisional Applications 60/606,506, filed Sep. 2, 2004, 60/608,148, filed Sep. 9, 2004, and 60/606,507, filed Sep. 2, 2004 which are herein incorporated by reference in their entireties. BV2 cells were transfected with siRNA to SET. BV2 cells transfected with the siRNA and BV2 cells not transfected with the siRNA were treated with COG 133, LPS, or LPS and COG 133 as described in the above-referenced patent applications. Untreated BV2 cells were used as a control. FIG. 3 is a graph of the results. Bars three and seven correspond to LPS without siRNA to SET and with siRNA to SET, respectively. […] Similarly, there is a reduction in nitric oxide in the group treated with LPS and COG 133 and transfected with siRNA to SET compared to the group treated with LPS and COG 133 and not transfected with siRNA (lanes 8 and 4, respectively).

[5] = tested on: c-Jun N-terminal kinase (JNK); experiment: LPS-induced phosphorylation of JNK in BV2 microglia, western blot; format: cell-based, mouse; settings: LPS plus peptide, 30 minutes
Method: (§3) Mouse BV2 microglia were incubated with either a negative control, LPS, or LPS and COG 133 (SEQ ID NO: 1) peptide for 30 minutes. Cells were lysed and a clarified extract prepared by centrifugation. Polyacrylamide gels were loaded with 30 μg of extract per lane and run in SDS buffer. […] Membranes were then probed with phospho-specific p38 MAP kinase, MKK 3/6, JNK, ERK, and IκB antibodies. Membranes were developed with Enhanced Chemiluminescence substrates (GE healthcare) and visualized by exposure to film. Membranes were then stripped and reprobed for total p38, JNK, Erk or IκB using non phospho-specific antibodies as previously described. In some experiments, the membranes were probed for GAPDH protein. Densitometry analysis of the western blots was conducted and the signals from phosphorylated p38 MAP kinase were normalized to those from GAPDH. […] PP2A has been reported to bind and dephosphorylate p38 MAP kinase (Sundaresan & Farndale 2002 FEBS Letters 528, 139). Given that COG peptides can increase PP2A activity (Example 5), it is likely that the dephosphorylation of p38 MAP kinase occurs through the activation of PP2A by COG binding to SET.

human THP1 cells = experiment: LPS-induced TNFα production in human THP1 cells with and without siRNA to SET; format: cell-based; settings: SET removed by siRNA-based silencing
Text: Consistent with the mechanism of SET as an inhibitor of Protein Phosphatase 2A (PP2A), a reduction of the LPS-induced TNF response as well as elimination of the effect of COG 133 was observed when SET was removed from the cells.

NFκB = experiment: Nuclear NFκB in LPS-stimulated colonic epithelial cells, gel shift with radiolabeled oligonucleotide; format: cell-based; settings: nuclear extracts
Method: In the dephosphorylated state, IκB binds to the transcription factor NFκB and prevents it from translocating to the nucleus to activate transcription of pro-inflammatory cytokines. […] A radiolabeled oligonucleotide containing a NFκB binding site was added to the proteins from the nuclear extracts and the proteins were subsequently separated by non-denaturing polyacrylamide gel electrophoresis. The amount of NFκB present in the nuclear extracts was detected by autoradiography (FIG. 10D). Nuclear NFκB was reduced in the presence of COG 133 providing further evidence that this signal transduction cascade is suppressed in cells treated with ApoE peptides.

[6] = tested on: extracellular regulated kinase (ERK) 1/2; experiment: LPS-induced phosphorylation of ERK 1/2 in BV2 microglia, western blot; format: cell-based, mouse; settings: LPS plus peptide, 30 minutes
Method: as §3

p38 MAP kinase = experiment: LPS-induced phosphorylation of p38 MAP kinase in BV2 microglia, western blot; format: cell-based, mouse; settings: LPS plus peptide, 30 minutes, normalized to GAPDH
Method: as §3

IκB = experiment: LPS-induced phosphorylation of IκB in BV2 microglia, western blot; format: cell-based, mouse; settings: LPS plus peptide, 30 minutes
Method: as §3

BV2 cells [7] = settings: without siRNA; previously shown; cited from earlier work

Q: Which results are given for `C=C1[C@@H](O)[C@@H]2O[C@]3(CC[C@H](/C=C/[C@@H](C)[C@@H]4CC(C)=C[C@@]5(O[C@H](C[C@@](C)(O)C(=O)O)CC[C@H]5O)O4)O3)CC[C@H]2O[C@@H]1[C@@H](O)C[C@H](C)[C@H]1O[C@@]2(CCCCO2)CC[C@H]1C` [okadaic acid, reference compound]?
A: phospho-tau in the cortex (tau; okadaic acid intravenously, increasing concentrations, one hour, normalized to GAPDH): concentration-dependent increase; baseline PP2A activity (PP2A): decrease in baseline PP2A activity

Q: With Ac-AS-Aib-LRKL-Aib-KRLL-NH2 [COG 1410] as the compound, how does the “SET protein pulled down with biotinylated COG 133” value (SET from human brain; 10-fold excess of competitor peptide, human brain extract) read?
A: reduces the amount of SET protein pulled down

Q: And the “phosphorylated tau protein induced by OA” value (tau; mouse, in vivo)?
A: reduced the amount of phosphorylated tau protein

Q: What about the “amount of SET bound to P35” value (SET bound to P35 [1]) of the same compound?
A: reduce the amount of SET bound to P35

Q: What about the “amount of SET bound to P35” value (SET bound to P35 [2]) of the same compound?
A: reduce the amount of SET bound to P35

Q: And the “competition with biotinylated COG 133 for binding to SET” value (SET; BV2 cells, anti-SET western blot)?
A: competes with COG 133 in binding to SET

Q: What about the “gain in therapeutic window as compared to COG 133” value [3] of the same compound?
A: 4 fold

Q: For LRVRLASHLRKLRKRLL [COG 133], which “nitric oxide, LPS+COG 133+siRNA versus LPS+siRNA” value (BV2 cells [4]) is on record?
A: not a significant difference

Q: What about the “LPS-induced phosphorylation of JNK” value [5] of the same compound?
A: reduces the LPS-induced phosphorylation

Q: What about the “effect in reducing LPS-induced TNFα production” value (human THP1 cells) of the same compound?
A: eliminated

Q: What about the “nuclear NFκB” value (NFκB) of the same compound?
A: reduced

Q: What about the “LPS-induced phosphorylation of ERK” value [6] of the same compound?
A: reduces the LPS-induced phosphorylation

Q: And the “phosphorylation of p38 MAP kinase” value (p38 MAP kinase)?
A: decrease in phosphorylation

Q: And the “amount of SET bound to P35” value (SET bound to P35 [2])?
A: reduce the amount of SET bound to P35

Q: And the “LPS-induced phosphorylation of IκB” value (IκB)?
A: reduces the LPS-induced phosphorylation

Q: What about the “LPS-induced nitric oxide production” value (BV2 cells [7]) of the same compound?
A: reduce LPS-induced nitric oxide production

Q: Which results are given for “biotinylated COG 133 [reference compound]”?
A: binding to SET (SET from human brain; 100 ng peptide in 1 mg human brain supernatant, streptavidin pull-down): binds to and pulls down SET; binding to SET (SET): uniquely bind
